From patent US20240247048A1 (EMORY UNIVERSITY, priority 2021, published 2024)

Test system: orthotopic KPC-Luc tumors
Assay: orthotopic KPC-Luc pancreatic tumor model
Format: in vivo, mouse
Conditions: FIG. 21b
From the text: KPC.Luc cells were orthotopically implanted in the tail of the pancreas of C57BL/6 mice and treated with ANT008 and/or anti-PD-1 with n=9, 10, 8 and 11 in scrambled+IgG, ANT008+IgG, scrambled+anti-PD-1 and ANT008+anti-PD-1, respectively. (FIG. 21A) Schematic showing orthotopic implantation of KPC.Luc cells and treatment strategy with ANT008 and/or anti-PD-1. (FIG. 21B) Waterfall plot showing % change in tumor flux on day 22 relative to day 7 prior to start of treatment. (FIG. 21C) Total flux as measured by IVIS bioluminescent imaging in the different treatment groups. Isoflurane was used for anesthesia for bioluminescent imaging. Median flux represented as dashed gray line (----). Cross symbol (+) represents mice that were euthanized before day 25 due to ulceration of the tumor and circle symbol (∘) represent mouse that were imaged on day 26 via MRI imaging shown in FIG. 30. (FIG. 21D) Bar graph showing weight of pancreas on day 25 when the mice were euthanized. ‘Star’ shaped (⋆) data points indicate tumor free mice and dotted horizontal line (----) represents the average weight of healthy pancreas from naïve mice. […] P values in FIG. 21D were calculated using student ANOVA followed by Dunnett's post hoc test (comparing each treatment group with Scram+IgG). […]

KPRRPYTDNYTRLRKQMAVKKYLNLILN [ANT008]
mice in which tumors regressed, number of mice of group: 4/10 | mice in which tumors regressed (tumor flux day 22 relative to day 7): 40%
